Reference: the supplement of paper PMC10307832

Each cell line was assayed with C1CSC2=C(C(=O)N1)SC3=C2C=C(C=C3)O [kb NB 142-70] + CS(=O)(=O)N1CCN(Cc2cc3nc(-c4cccc5[nH]ncc45)nc(N4CCOCC4)c3s2)CC1 [Pictilisib] (partner 1 µM) (assay: relative viability (nuclei count vs DMSO), 5 days (fraction); higher = more cells survive). Details: first compound 0.1 µM.
Summary of the method: (§1)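 Cells from lung cancer lines were seeded into 1536-well plates and, one day later, dosed by pin tool. Treatments were either a single drug or a fixed dose of an anchor drug with five library-drug doses (not always all listed) in √10 steps. After 5 days, nuclei were stained in a one-step fixation (final 0.05% Triton X-100, 1% formaldehyde, 1 ug/ml Hoechst) and counted on 4× images, and relative viability is the treated-to-vehicle nuclei ratio, as the median of duplicate plates.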

Row | Cell Line | relative viability
1 | NCI-H2228 | 0.494
2 | NCI-H1792 | 0.323
3 | NCI-H1355 | 0.491
4 | NCI-H3122 | 0.578
5 | NCI-H1437 | 0.406
6 | NCI-H1755 | 0.462
7 | NCI-H2023 | 0.258
8 | HCC-15 | 0.746
9 | NCI-H1793 | 0.313
10 | PC-14 | 0.679
11 | EKVX | 0.413
12 | LC-2-ad | 0.508
13 | NCI-H1563 | 0.654
14 | NCI-H1944 | 0.358
15 | NCI-H1975 | 0.263
16 | RERF-LC-KJ | 0.504
17 | ABC-1 | 0.757
18 | NCI-H358 | 0.35
19 | NCI-H650 | 1.05
20 | PC-3 [JPC-3] | 0.769

Same assay, conditions: first compound 1 µM

Row | Cell Line | relative viability
21 | NCI-H2228 | 0.225
22 | NCI-H1792 | 0.269
23 | NCI-H1355 | 0.428
24 | NCI-H3122 | 0.649
25 | NCI-H1437 | 0.459
26 | NCI-H1755 | 0.504
27 | NCI-H2023 | 0.207
28 | HCC-15 | 0.79
29 | NCI-H1793 | 0.379
30 | PC-14 | 0.795
31 | EKVX | 0.465
32 | LC-2-ad | 0.545
33 | NCI-H1563 | 0.674
34 | NCI-H1944 | 0.375
35 | NCI-H1975 | 0.264
36 | RERF-LC-KJ | 0.519
37 | ABC-1 | 0.879
38 | NCI-H358 | 0.3
39 | NCI-H650 | 0.94
40 | PC-3 [JPC-3] | 0.768

Same assay, conditions: first compound 3.162 µM

Row | Cell Line | relative viability
41 | NCI-H2228 | 0.183
42 | NCI-H1792 | 0.396
43 | NCI-H1355 | 0.425
44 | NCI-H3122 | 0.551
45 | NCI-H1437 | 0.37
46 | NCI-H1755 | 0.431
47 | NCI-H2023 | 0.227
48 | HCC-15 | 0.56
49 | NCI-H1793 | 0.386
50 | PC-14 | 0.58
51 | EKVX | 0.438
52 | LC-2-ad | 0.311
53 | NCI-H1563 | 0.634
54 | NCI-H1944 | 0.41
55 | NCI-H1975 | 0.178
56 | RERF-LC-KJ | 0.374
57 | ABC-1 | 0.381
58 | NCI-H358 | 0.189
59 | NCI-H650 | 0.756
60 | PC-3 [JPC-3] | 0.672

The cell lines below were run with NCC(=O)Nc1ccc(-n2nc(C(F)(F)F)cc2-c2ccc3c(ccc4ccccc43)c2)cc1 + CS(=O)(=O)CCNCc1ccc(-c2ccc3ncnc(Nc4ccc(OCc5cccc(F)c5)c(Cl)c4)c3c2)o1 [Lapatinib] (partner 2 µM) in the same assay as above. Details: first compound 0.02 µM.
Summary of the method: as §1

Row | Cell Line | relative viability
61 | NCI-H2228 | 1.1
62 | NCI-H1792 | 1
63 | NCI-H1355 | 1
64 | NCI-H3122 | 1.08
65 | NCI-H1437 | 0.768
66 | NCI-H1755 | 1.01
67 | NCI-H2023 | 0.747
68 | HCC-15 | 0.847
69 | NCI-H1793 | 0.659
70 | PC-14 | 0.381
71 | EKVX | 0.213
72 | LC-2-ad | 0.967
73 | NCI-H1563 | 0.841
74 | NCI-H1944 | 0.813
75 | NCI-H1975 | 0.816
76 | RERF-LC-KJ | 0.955
77 | ABC-1 | 1.26
78 | NCI-H358 | 0.553
79 | NCI-H650 | 0.665
80 | PC-3 [JPC-3] | 0.411

Same assay, conditions: first compound 0.06325 µM

Row | Cell Line | relative viability
81 | NCI-H2228 | 1.21
82 | NCI-H1792 | 0.948
83 | NCI-H1355 | 1.05
84 | NCI-H3122 | 1.05
85 | NCI-H1437 | 0.76
86 | NCI-H1755 | 1
87 | NCI-H2023 | 1.2
88 | HCC-15 | 0.876
89 | NCI-H1793 | 0.684
90 | PC-14 | 0.277
91 | EKVX | 0.216
92 | LC-2-ad | 0.932
93 | NCI-H1563 | 0.998
94 | NCI-H1944 | 0.888
95 | NCI-H1975 | 0.915
96 | RERF-LC-KJ | 0.828
97 | ABC-1 | 1.01
98 | NCI-H358 | 0.323
99 | NCI-H650 | 1.06
100 | PC-3 [JPC-3] | 0.458

Same assay, conditions: first compound 0.2 µM

Row | Cell Line | relative viability
101 | NCI-H2228 | 1.14
102 | NCI-H1792 | 0.918
103 | NCI-H1355 | 1.08
104 | NCI-H3122 | 1.01
105 | NCI-H1437 | 0.751
106 | NCI-H1755 | 1.07
107 | NCI-H2023 | 0.476
108 | HCC-15 | 0.839
109 | NCI-H1793 | 0.743
110 | PC-14 | 0.305
111 | EKVX | 0.228
112 | LC-2-ad | 1.02
113 | NCI-H1563 | 0.758
114 | NCI-H1944 | 0.752
115 | NCI-H1975 | 0.854
116 | RERF-LC-KJ | 0.909
117 | ABC-1 | 0.983
118 | NCI-H358 | 0.41
119 | NCI-H650 | 0.934
120 | PC-3 [JPC-3] | 0.428

Same assay, conditions: first compound 0.6325 µM

Row | Cell Line | relative viability
121 | NCI-H2228 | 0.935
122 | NCI-H1792 | 0.933
123 | NCI-H1355 | 0.951
124 | NCI-H3122 | 0.988
125 | NCI-H1437 | 0.84
126 | NCI-H1755 | 1.02
127 | NCI-H2023 | 0.838
128 | HCC-15 | 0.821
129 | NCI-H1793 | 0.886
130 | PC-14 | 0.305
131 | EKVX | 0.223
132 | LC-2-ad | 0.96
133 | NCI-H1563 | 0.945
134 | NCI-H1944 | 0.801
135 | NCI-H1975 | 0.91
136 | RERF-LC-KJ | 0.891
137 | ABC-1 | 1.05
138 | NCI-H358 | 0.528
139 | NCI-H650 | 0.87
140 | PC-3 [JPC-3] | 0.444

Same assay, conditions: first compound 2 µM

Row | Cell Line | relative viability
141 | NCI-H2228 | 0.804
142 | NCI-H1792 | 0.857
143 | NCI-H1355 | 1.05
144 | NCI-H3122 | 0.934
145 | NCI-H1437 | 0.78
146 | NCI-H1755 | 1.06
147 | NCI-H2023 | 0.74
148 | HCC-15 | 0.812
149 | NCI-H1793 | 0.84
150 | PC-14 | 0.37
151 | EKVX | 0.203
152 | LC-2-ad | 1.06
153 | NCI-H1563 | 0.909
154 | NCI-H1944 | 0.876
155 | NCI-H1975 | 0.969
156 | RERF-LC-KJ | 0.82
157 | ABC-1 | 1.11
158 | NCI-H358 | 0.491
159 | NCI-H650 | 1.25
